Laboratory results: patent US20130022590A1, “Compositions Comprising Zinc Finger Domains and Uses Therefor” (priority 2009, published 2013)

Experiments:
[1] = tested on: ssRNA oligonucleotide containing a single AGGUAA site (GCAACCAGGUAAAGUCU, SEQ ID NO: 28); experiment: Fluorescence anisotropy titration, single-site ssRNA; format: binding; settings: GST fusions; ssRNA with 5′ fluorescein tag and a single AGGUAA site; 25° C.
Experimental: (§1) Fluorescence Anisotropy titrations e.g., as shown in FIGS. 1D-F, 8 and 35, were carried out using standard protocols. In brief, 5′-Fluorescein-labeled RNA oligonucleotides were quantified by A260, correcting for fluorescein absorbance by using A493. For single-site experiments, the sequence GCAACCAGGUAAAGUCU (SEQ ID NO: 28), or single base mutants thereof, was used. For double-site experiments, two AGGUAA sites were separated by different length sequences as indicated, and the total oligonucleotide lengths were kept constant by the symmetrical addition of adenines to each end. […] Protein was titrated into this starting solution and anisotropy values measured on a Cary Eclipse fluorescence spectrophotometer fitted with manual polarizer and long-pass filters set to 475 and 515 nm for excitation and emission, respectively. […] Association constants were determined by nonlinear least squares regression analysis using a 1:1 binding model.
Constructs of the two individual domains, F1 (FIG. 2, residues 1-45) and F2 (FIG. 2, residues 65-95), were cloned expressed and purified as GST fusions described in section 1.2 above, and tested their ability to bind ssRNA by fluorescence anisotropy as described in section 1.5 above, using a ssRNA oligonucleotide bearing a 5′ fluorescein tag and containing a single AGGUAA site.

AGAUAA ssRNA = experiment: Fluorescence anisotropy binding assay, AGAUAA substrate; settings: FIG. 19 and FIG. 20
Experimental: as §1
To determine whether changing arginine-82 (R82) would affect the binding preference of ZRANB2-F2 from GGU to GAU, the point mutation R82Q in ZNF 2 of ZRANB2 was made and the ability of both the wild type (W) protein and the R82Q mutant to bind to AGGUAA and AGAUAA was assessed by fluorescence anisotropy binding assays as described previously in Example 1.

[2] = tested on: short (6 or 10 nt) RNA oligonucleotides containing a single AGGUAA motif; experiment: NMR chemical-shift perturbation (15N-HSQC) RNA titration; format: binding; settings: 15N-labeled F2
Experimental: In brief, F2 and F12 were dialysed into 25 mM potassium phosphate (pH 7.0), 25 mM NaCl, and 0.5 mM DTT and concentrated to 0.4-1 mM. All spectra were recorded on a Bruker Avance 600 spectrometer equipped with a cryoprobe. 1H, 15N, and 13C assignments were obtained from HNCACB, CB-CA(CO)NH, HCCH-TOCSY, NOESY, and TOCSY spectra acquired at 2° C., 5° C., or 25° C. Dihedral angle restraints were obtained by analysis of an HNHA spectrum as previously described in Vuister G. W. and Bax A. 1993 J Am Chem Soc 115: 7772-7777. NMR data were processed by using XWINNMR/Topspin (Bruker) and analyzed with SPARKY (T. D. Goddard and D. G. Kneller, University of California, San Francisco). The structure of F2 was calculated from NOE and Ø angle constraints (e.g., FIGS. 5 and 9C) by using a protocol as described in Plambeck C. A., et al., 2003 J Biol Chem 278: 22805-22811.
For RNA titrations, deprotected RNA oligonucleotides i.e., having the sequence AGGUAA, CCAGGUAAAG (SEQ ID NO: 25), or AGGUAAAGGUAA (SEQ ID NO: 26) and the appropriate protein were dialyzed into 10 mM Mops (pH 7.2) and 0.5 mM DTT. Protein and RNA concentrations were calculated from A280 and A260, respectively. Final concentrations of complexes after titrations were typically approximately 0.1-0.5 mM. Assignments of the F2:RNA complex (1:1 or 1:1.2 molar ratio) were made at 25° C. as described above. […]

binding affinity to guanine base relative to adenine base at position 3 (AGGUAA vs AGAUAA) (AGAUAA ssRNA) | Substance | association constant [1] [M⁻¹] | complex formed on RNA titration [2]
– | F1: F1 zinc finger domain (residues 1-45 of human ZRANB2) (MSTKNFRVSDGDWICPDKKCGNVNFARRTSCNRCGREKTTEAKMM; F1 zinc finger domain GST fusion in some uses; UniProt O95218 1-45, looked up, fragment) | 3e+06 | –
about 4 fold | F2: F2 zinc finger domain (residues 65-95 of human ZRANB2), wild type (SANDWQCKTCSNVNWARRSECNMCNTPKYAK; F2 zinc finger domain GST fusion in some uses; UniProt O95218 65-95, looked up, fragment) | 1e+06 | well-defined 1:1 complex
